# Experimental data published in patent US20230233500A1, “Gasdermin D (GSDMD) Succination for the Treatment of Inflammatory Disease” (University of Massachusetts, priority 2020, published 2023).
# Structures can show the parent of a compound that is named as a salt.
# Key:
# EAE in WT mice = experiment: Experimental autoimmune encephalomyelitis (EAE); type: in vivo, mouse
# [1] = test system: Bone marrow-derived macrophages (BMDMs); experiment: LPS-nigericin inflammasome activation/pyroptosis in BMDMs; type: cell-based, mouse; details: for kinetic cell death: SYTOX orange, 0-6 hrs
# Procedure: Human kidney cell line HEK293T was cultured in Dulbecco's modified Eagle's medium supplemented with 10% (v/v) fetal bovine serum, 100 U/ml penicillin and 100 µg/ml streptomycin. Human peripheral blood monocyte cell line, THP1 cells were cultured in RPMI-1640 medium supplemented with 10% (v/v) fetal bovine serum, 100 U/ml penicillin and 100 µg/ml streptomycin. For isolation of BMDMs, tibias and femurs were removed from wild type and GsdmD^−/− mice and bone marrow was flushed with complete DMEM-medium. Cells were plated in medium containing 20% (v/v) conditioned medium of L929 mouse fibroblasts cultured for 7 days at 37° C. in a humidified atmosphere of 5% C02. Medium was replaced every 3 days.
# Conditioned media or serum was collected as indicated and IL-1β or TNF-α, were quantified by sandwich ELISA (R&D Systems).
# (§1) Cells were plated, treated and incubated in phenol red free medium. Following treatment medium was collected and assessed for LDH release using the CytoTox96 non-radioactive cytotoxicity assay (Promega) as per manufacturer's instructions. Kinetic cell death assays were performed using SytoxOrange and the Biotek Cytation5.
# For noncanonical inflammasome activation, cells were primed with […] Pam3CSK4 (Invivogen) for 2 h, followed by transfection of LPS (2 μg/ml) using Lipofectamine 2000 for 16 hours.
# Primary BMDMs from WT or GsdmD^−/− mice were cultured in 12-well plates (1×10^6 cells per ml; 1 ml) or 10 cm dishes (2×10^6 cells per ml; 10 ml). HEK293T cells (2.5×10^5 cells per ml; 3 ml) were cultured in 6-well plates and transfected with FLAG-tagged GSDMD constructs where indicated. For cell lysate analysis cells were lysed directly in 1× Lamelli sample buffer. For native gel analysis cells were lysed in NP-40 lysis buffer (50 mM Tris-HCl, pH 7.4, containing 150 mM NaCl, 0.5% (w/v) IgePal, 50 mM NaF, 1 mM Na3VO4, 1 mM dithiothreitol, 1 mM phenylmethylsulfonyl fluoride and protease inhibitor cocktail. For immunoprecipitation of GSDMD, cells were treated as indicated and then collected in 500 μl RIPA buffer, followed by incubation for 15 min on ice. Lysates were incubated with GSDMD antibody and protein A-protein G-agarose was added to each sample, followed by incubation overnight at 4° C. Immunoprecipitates were collected by centrifugation and washed four times with 1 ml of RIPA buffer. Immunprecipates were eluted from beads using 1× sample buffer. Samples were resolved by SDS-PAGE and stained using simply blue safe stain or transferred to nitrocellulose membranes and analyzed by immunoblot. Immunoreactivity was visualized by the Odyssey Imaging System (LICOR Biosciences). For immunoblotting of IL-1β in cell supernatants, conditioned medium was collected and filtered using filter spin columns to reduce salt and remove abundant serum proteins. Filtrates were added to 4×SDS-PAGE sample buffer and resolved by SDS-PAGE for immunoblot analysis. GSDMD (ab209845) and GSDME antibodies were from abcam (ab215191). Caspase 1 antibody was from adipogen. Fumarase antibody was from cell signalling and anti-β-actin (AC-15; A1978) were from Sigma; anti-mouse IRDye™ 680 (926-68070) and anti-rabbit IRDye™ 800 (926-32211) were from LI-COR Biosciences.
# Numerous studies have shown that cell metabolism impacts inflammatory responses. LPS activated macrophages switch from oxidative phosphorylation to aerobic glycolysis. Krebs cycle intermediates such as succinate and itaconate accumulate and moonlight as positive and negative regulators of inflammatory gene expression (3-8). To determine if Krebs cycle intermediates modulate pyroptosis, we tested their effect on inflammasome responses. Bone marrow-derived macrophages (BMDMs) were primed with LPS (2 hr) before being exposed to metabolites and then exposed to nigericin (Nig) and inflammasome activation/pyroptosis measured. The metabolites were added after LPS to avoid any impact on transcription. […] Fumarate impaired kinetic cell death (0-6 hrs) (FIG. 1E, FIG. 5A). […]
# [2] = test system: GSDMD-deficient BMDMs (GSDME); experiment: Cell death in GSDMD-deficient BMDMs; type: cell-based, mouse
# Excerpt: FIGS. 3A-J. Fumarate targets GSDMD and Gasdermin E (GSDME). Kinetic cell death of WT and Gsdmd-BMDMs (A) or WT/GSDMD^−/− THP1 cells (B) treated as indicated. LDH and IL-1β release from WT and Gsdmd^−/− BMDMs (C-D). Immunoblot of GSDMD and GSDME in native and reduced cell lysates from BMDMs (E). Immunoblot of GSDME in streptavidin pulldown from clicked lysates (F). Representative Mass spectra of succinated GSDME (G-H). Immunoblot analysis of GSDMD and GSDME from WT and Gsdmcd^−/− BMDMs (I). A, B representative of three independent experiments. C, D, I pooled data from three independent experiments. E, F, J representative images from 3 independent experiments. ***, P<0.0001, […] (Two-way ANOVA). Error bars show means±SEM.
# FIGS. 13A-B. Fumarate inhibits GSDMD and GSDME comparably. (A) Kinetic cell death data of WT (left-panel) and GSDMD−/− (right-panel) primary BMDMs with LPS for 2 hours, DMSO (vehicle) or fumarate (0-50 μM) followed by nigericin (10 μM) for 6 hours. (B) Immunoblot analysis of GSDMD, GSDME and -actin in cell lysates from WT and GSDMD−/− BMDMs treated as in (A).
# as §1
# [3] = flow cytometry, spinal cord and brain
smiles,measurement,setting,value
"COC(=O)/C=C/C(=O)OC [Fumarate, Dimethyl fumarate]",onset of EAE (clinical scores),"EAE in WT mice; WT mice, fumarate daily after EAE induction",blocked
same,Th1 (IFN-γ+) cells in the CNS,EAE in WT mice; flow cytometry,reduced
same,Th17 (IL-17A+) cells in the CNS,EAE in WT mice; flow cytometry,reduced
same,infiltration of CD4+ T-cells to the CNS,EAE in WT mice; [3],reduced infiltration
same,infiltration of CD8+ T-cells to the CNS,EAE in WT mice; [3],reduced infiltration
same,infiltration of myeloid cells to the CNS,EAE in WT mice; [3],reduced infiltration
same,neuropathology,EAE in WT mice; spinal cord sections,reduced
same,demyelination,"EAE in WT mice; spinal cord sections, LFB",reduced
same,GSDMD-N in CNS tissue,"EAE in WT mice; spinal cord, staining and immunoblot",reduced
same,GSDMD oligomerization,"[1]; BMDMs pre-treated, LPS-Nig, native and reduced lysates",decreased
same,LPS-Nig-induced release of LDH,"[1]; WT BMDMs, LPS 2 hr, compound 1 hour (fumarate 25 μM), then nigericin",potently blocked
same,LPS-Nig-induced release of IL-1β,"[1]; WT BMDMs, LPS 2 hr, compound 1 hour (fumarate 25 μM), then nigericin, ELISA",potently blocked
same,kinetic cell death,"[1]; WT BMDMs, LPS-Nig",impaired
same,kinetic cell death,"[1]; WT BMDMs, LPS-Nig, listed as fumarate",inhibited cell death
same,formation of GSDMD-N,"[1]; WT BMDMs, LPS-Nig, immunoblot",blocked
same,cell death when added after Nig treatment,"[1]; WT BMDMs, fumarate 25 μM 15 minutes after each nigericin timepoint",impaired
same,"cell death (GSDMD-independent, GSDME-dependent)","[2]; GSDMD-deficient BMDMs, kinetic",inhibited cell death
same,GSDME processing / generation of GSDME-N,"[2]; GSDMD-deficient cells, immunoblot",blocked
same,inhibition of GSDMD-driven versus GSDME-driven cell death,"[2]; WT and GSDMD-/- BMDMs, fumarate 0-50 μM, nigericin 6 hours",comparably
